In paper PMC10460880, “Cathepsin K‐Activated Probe for Fluoro‐Photoacoustic Imaging of Early Osteolytic Metastasis” (Advanced Science, 2023):

Tests used:
[1] = system: MDA-MB-231/Luc-induced osteolytic metastasis; test: Real-time NIR fluorescence and PA imaging of osteolytic metastasis; format: in vivo, BALB/c nude mice; conditions: i.v. 50 μM, 200 μL; imaged 0-24 h; n = 3
Protocol: page 5: PS. RAW 264.7 cells and BMMs were maintained in an atmosphere of 5% CO2 and 95% humidified air at 37 °C. The medium was changed every day. Cell cytotoxicity assay. MDA-MB-231/Luc and RAW 264.7 cells were seeded in 96-well plates (5×10^3 cells per well) for 24 h and then incubated with CTSK-APPA or CTSK-APP (5, 10, 20, 50 μM) or saline for 24 h. The medium was removed and cells were incubated with CCK-8 (0.5 mg/mL) for another 1 h. The absorbance of the mixture at 450 nm was measured by using a microplate reader. Cell viability was expressed by the ratio of the absorbance of the cells incubated with the probes to that of the cells incubated with culture medium only. In vitro osteoclast differentiation. Bone marrow-derived macrophages were isolated from the femurs and tibias of 4-week-old C57BL/6J mice and cultured in a complete medium containing M-CSF (30 ng/mL) for 4 days. […] Fluorescence images were captured by using the IVIS Spectrum imaging system with excitation at 660 ± 10 nm and emission at 710 ± 10 nm. […] The bone marrow toxicity of CTSK-APPA and CTSK-APP was assessed by blood analyses in mice. […] The red blood count (RBC) and white blood count (WBC) were further measured. […] The supernatants containing excreted probes were quantified by using a UV-vis absorption spectrometer. […]

[2] = system: CTSK-overexpressing OCs on calf bone slice; test: In vitro bone resorption imaging assay; format: cell-based, C57BL/6J mice; conditions: probe 5 μM, 37 °C, 2 h; Ex 660 nm, Em 710 nm; n = 3
Protocol: PS. RAW 264.7 cells and BMMs were maintained in an atmosphere of 5% CO2 and 95% humidified air at 37 °C. The medium was changed every day.
Cell cytotoxicity assay. MDA-MB-231/Luc and RAW 264.7 cells were seeded in 96-well plates (5×10^3 cells per well) for 24 h and then incubated with CTSK-APPA or CTSK-APP (5, 10, 20, 50 μM) or saline for 24 h. The medium was removed and cells were incubated with CCK-8 (0.5 mg/mL) for another 1 h. The absorbance of the mixture at 450 nm was measured by using a microplate reader. Cell viability was expressed by the ratio of the absorbance of the cells incubated with the probes to that of the cells incubated with culture medium only.
In vitro osteoclast differentiation. Bone marrow-derived macrophages were isolated from the femurs and tibias of 4-week-old C57BL/6J mice and cultured in a complete medium containing M-CSF (30 ng/mL) for 4 days. BMMs were harvested to the 24-well plates (1×10^4 per well) and cultured in the complete medium containing M-CSF (30 ng/mL) and RANKL (100 ng/mL) for another 4 days. The osteoclasts were fixed and stained by using acid phosphatase and a leukocyte kit according to the manufacturer’s procedures.
In vitro bone resorption imaging assay. […]
Fluorescence images were captured by using the IVIS Spectrum imaging system with excitation […]

[3] = Histology (H&E) of organs after injection; format: in vivo, mice; conditions: 24 h post intravenous administration

Substance: Cbz‐Leu‐Arg‐OH [CTSK-APPA]
- time of maximum NIR fluorescence and PA signal post-injection [1]: 4 h
- NIR fluorescence of bone-resorption slice vs normal bone slices [2]: stronger NIR fluorescence signal
- histological changes (H&E) after injection [3]: no histological changes
